Laboratory results published in patent US20250042889A1, “3CLPRO PROTEASE INHIBITOR” (SHANGHAI QILU PHARMACEUTICAL RESEARCH AND DEVELOPMENT …, priority 2021, published 2025).
Like-named read-outs stand apart in the source and are kept apart here.

Target: SARS-COV-2 3CLpro/Mpro protease (Severe acute respiratory syndrome coronavirus 2 (2019-nCoV) (SARS-CoV-2), UniProt P0DTD1)
Assay: Inhibitory effect on SARS-COV-2 3CLpro/Mpro protease by fluorescence resonance energy transfer
Type: biochemical
Details: activity intervals A-D
[1] = read-out: IC50 (nM), Inhibition on SARS-CoV-2 3CLpro/Mpro protease
[2] = IC50 (nM), Inhibition on SARS-CoV-2 3CLpro/Mpro protease

Row | SMILES | IC50 [1] | IC50 [2]
1 | CSc1cncc(C(=O)N2CCC[C@@H](Nc3c(C(=O)N4CCCCC4)cc(Br)cc3[N+](=O)[O-])C2)c1 [Example 261] | 10 to 50 nM | 
2 | C[C@H]1C[C@H](C)CN(C(=O)c2cc(Br)cc([N+](=O)[O-])c2N[C@@H]2CCCN(C(=O)[C@H]3CC(=O)N[C@@H](C)C3)C2)C1 [Example 262] | 10 to 50 nM | 
3 | CNc1cncc(C(=O)N2CCC[C@@H](Nc3c(C(=O)N4CC(N)CC(F)(F)C4)cc(Br)cc3[N+](=O)[O-])C2)c1 (some centres unmarked) [Example 263] | 10 to 50 nM | 
4 | O=C1C[C@H](C(=O)N2CCC[C@@H](Nc3c(C(=O)N4CCCCC4)cc(Br)cc3[N+](=O)[O-])C2)c2ccccc2N1 [Example 264] | 10 to 50 nM | 
5 | O=C1C[C@@H](C(=O)N2CCC[C@@H](Nc3c(C(=O)N4CCCCC4)cc(Br)cc3[N+](=O)[O-])C2)c2ccccc2N1 [Example 265] | 10 to 50 nM | 
6 | CNc1cncc(C(=O)N2CCC[C@@H](Nc3c(C(=O)N4CC5CC(C4)O5)cc(Br)cc3[N+](=O)[O-])C2)c1 [Example 266] |  | 10 to 50 nM
7 | CNc1cncc(C(=O)N2CCC[C@@H](Nc3c(C(=O)N4CCc5ccsc5C4)cc(Br)cc3[N+](=O)[O-])C2)c1 [Example 267] | 10 to 50 nM | 
8 | CNc1cncc(C(=O)N2CCC[C@@H](Nc3c(C(=O)N4CCC5(CCCO5)CC4)cc(Br)cc3[N+](=O)[O-])C2)c1 [Example 268] | < 10 nM | 
9 | CNc1cncc(C(=O)N2CCC[C@@H](Nc3c(C(=O)N4CC5CCC(C4)O5)cc(Br)cc3[N+](=O)[O-])C2)c1 [Example 269] | 10 to 50 nM | 
10 | CNc1cncc(C(=O)N2CCC[C@@H](Nc3c(C(=O)N4CCC5(CCCCO5)CC4)cc(Br)cc3[N+](=O)[O-])C2)c1 [Example 270] | 10 to 50 nM | 
11 | CNc1cncc(C(=O)N2CCC[C@@H](Nc3c(C(=O)N4Cc5cccnc5C4)cc(Br)cc3[N+](=O)[O-])C2)c1 [Example 271] | 10 to 50 nM | 
12 | CNc1cncc(C(=O)N2CCC[C@@H](Nc3c(C(=O)N4CCC5(CCNCC5)CC4)cc(Br)cc3[N+](=O)[O-])C2)c1 [Example 272] | 10 to 50 nM | 
13 | CNc1cncc(C(=O)N2CCC[C@@H](Nc3c(C(=O)N4CC(F)(F)C(F)(F)C4)cc(Br)cc3[N+](=O)[O-])C2)c1 [Example 273] | 10 to 50 nM | 
14 | C[C@@H]1CN(C(=O)c2cc(Br)cc([N+](=O)[O-])c2N[C@@H]2CCCN(C(=O)[C@H]3CC(=O)Nc4ccccc43)C2)C[C@H](C)O1 [Example 274] | < 10 nM | 
15 | CNc1cncc(C(=O)N2CCC[C@@H](Nc3c(C(=O)N4CCC(C)(OC)CC4)cc(Br)cc3[N+](=O)[O-])C2)c1 [Example 275] | 10 to 50 nM | 
16 | CNc1cncc(C(=O)N2CCC[C@@H](Nc3c(C(=O)N4CC5CCC(C4)N5)cc(Br)cc3[N+](=O)[O-])C2)c1 [Example 276] |  | 10 to 50 nM
17 | CNc1cncc(C(=O)N2CCC[C@@H](Nc3c(C(=O)N4CCc5sccc5C4)cc(Br)cc3[N+](=O)[O-])C2)c1 [Example 277] | 10 to 50 nM | 
18 | CNc1cncc(C(=O)N2CCC[C@@H](Nc3c(C(=O)N4Cc5c[nH]nc5C4)cc(Br)cc3[N+](=O)[O-])C2)c1 [Example 278] | 10 to 50 nM | 
19 | CNc1cncc(C(=O)N2CCC[C@@H](Nc3c(C(=O)N4CCC(F)(F)CC4)cc(Br)cc3[N+](=O)[O-])C2)c1 [Example 279] | 10 to 50 nM | 
20 | CNc1cncc(C(=O)N2CCC[C@@H](Nc3c(C(=O)N4CCC5(CCCN5)CC4)cc(Br)cc3[N+](=O)[O-])C2)c1 [Example 280] | 10 to 50 nM | 
21 | CNc1cncc(C(=O)N2CCC[C@@H](Nc3c(C(=O)N4CCC(OC)(C(F)(F)F)CC4)cc(Br)cc3[N+](=O)[O-])C2)c1 [Example 281] | 50 to 100 nM | 
22 | C[C@@H]1CN(C(=O)c2cc(Br)cc([N+](=O)[O-])c2N[C@@H]2CCCN(C(=O)[C@H]3CC(=O)Nc4ccccc43)C2)CCO1 [Example 282] | 10 to 50 nM | 

Row | SMILES | IC50 [1] | IC50 [2]
23 | C[C@H]1CN(C(=O)c2cc(Br)cc([N+](=O)[O-])c2N[C@@H]2CCCN(C(=O)[C@H]3CC(=O)Nc4ccccc43)C2)CCO1 [Example 283] | 10 to 50 nM | 
24 | CNc1cncc(C(=O)N2CCC[C@@H](Nc3c(C(=O)N4Cc5cnn(C)c5C4)cc(Br)cc3[N+](=O)[O-])C2)c1 [Example 284] | 10 to 50 nM | 
25 | CNc1cncc(C(=O)N2CCC[C@@H](Nc3c(C(=O)N4CCC5(CCO5)CC4)cc(Br)cc3[N+](=O)[O-])C2)c1 [Example 285] | 10 to 50 nM | 
26 | CNc1cncc(C(=O)N2CCC[C@@H](Nc3c(C(=O)N4CCO[C@H](C(F)(F)F)C4)cc(Br)cc3[N+](=O)[O-])C2)c1 [Example 286] | 10 to 50 nM | 
27 | COCCN1CCN(C(=O)c2cc(Br)cc([N+](=O)[O-])c2N[C@H]2CN(C(=O)c3cncc(Br)c3)CC2(C)O)CC1 (some centres unmarked) [Example 287] | 10 to 50 nM | 
28 | CNc1cncc(C(=O)N2CCC[C@@H](Nc3c(C(=O)N4CCO[C@@H](C(F)(F)F)C4)cc(Br)cc3[N+](=O)[O-])C2)c1 [Example 288] | 10 to 50 nM | 
29 | CNc1cncc(C(=O)N2CCC[C@@H](Nc3c(C(=O)N4CCC(N5C[C@@H](C)O[C@@H](C)C5)CC4)cc(Br)cc3[N+](=O)[O-])C2)c1 [Example 289] | 10 to 50 nM | 
30 | CNc1cncc(C(=O)N2CCC[C@@H](Nc3c(C(=O)N4C[C@H]5C[C@@H]4CO5)cc(Br)cc3[N+](=O)[O-])C2)c1 [Example 290] | 10 to 50 nM | 
31 | CNc1cncc(C(=O)N2CCC[C@@H](Nc3c(C(=O)N4C[C@@H]5C[C@H]4CO5)cc(Br)cc3[N+](=O)[O-])C2)c1 [Example 291] | 10 to 50 nM | 
32 | CNc1cncc(C(=O)N2CCC[C@@H](Nc3c(C(=O)N4C5CCCC4CCC5)cc(Br)cc3[N+](=O)[O-])C2)c1 [Example 292] |  | 10 to 50 nM
33 | CNc1cncc(C(=O)N2CCC[C@@H](Nc3c(C(=O)N4CCC5(CC4)CCC(C)(C)O5)cc(Br)cc3[N+](=O)[O-])C2)c1 [Example 293] | 10 to 50 nM | 
34 | CNc1cncc(C(=O)N2CCC[C@@H](Nc3c(C(=O)N4CCOC5CC54)cc(Br)cc3[N+](=O)[O-])C2)c1 (some centres unmarked) [Example 294] | 10 to 50 nM | 
35 | O=C(c1cc(Br)cc([N+](=O)[O-])c1N[C@@H]1CCCN(C(=O)C2CNCC(F)(F)C2)C1)N1CCCCC1 (some centres unmarked) [Example 296] | 10 to 50 nM | 
36 | Cc1cc(C(=O)N2C[C@H](Nc3c(C(=O)NCc4ccc(Cl)cc4)cc(Br)cc3[N+](=O)[O-])C3(CC3)C2)cc(=O)[nH]1 [Example 297] | 10 to 50 nM | 
37 | CNc1cncc(C(=O)N2CC(Nc3c(C(=O)N4CCN(CCOC)CC4)cc(Br)cc3[N+](=O)[O-])C(F)(F)C2)c1 (centres unmarked) [Example 298] | 10 to 50 nM | 
38 | Cc1cc(C(=O)N2C[C@H](Nc3c(C(=O)NC4CCCCC4)cc(Br)cc3[N+](=O)[O-])C3(CC3)C2)cc(=O)[nH]1 [Example 299] | 10 to 50 nM | 
39 | Cc1cc(C(=O)N2CC(Nc3c(C(=O)N4CCN(C5CCCCC5)CC4)cc(Br)cc3[N+](=O)[O-])C(F)(F)C2)cc(=O)[nH]1 (centres unmarked) [Example 300] | 10 to 50 nM | 
40 | CNc1cncc(C(=O)NC[C@@H](COC)Nc2c(C(=O)N3CCCCC3)cc(Br)cc2[N+](=O)[O-])c1 [Example 301] | 50 to 100 nM | 
41 | NC(=O)c1cncc(C(=O)N2CCC[C@@H](Nc3c(C(=O)N4CCCCC4)cc(Br)cc3[N+](=O)[O-])C2)c1 [Example 302] | 100 to 200 nM | 
42 | CNc1cncc(C(=O)N2CCC[C@@H](Nc3c(C(=O)N4CC(O)CC(F)(F)C4)cc(Br)cc3[N+](=O)[O-])C2)c1 (some centres unmarked) [Example 303] | 10 to 50 nM | 
43 | CNc1cncc(C(=O)N2CCC[C@@H](Nc3c(C(=O)N4Cc5cnn(C)c5C4)cc(Br)cc3[N+](=O)[O-])C2)c1 [Example 304] | 50 to 100 nM | 
44 | CNc1cncc(C(=O)N2CCC[C@@H](Nc3c(C(=O)N4CCCOCC4)cc(Br)cc3[N+](=O)[O-])C2)c1 [Example 305] | 10 to 50 nM | 
